Results on one compound are retold here after publication PMC4734340, “Structural and functional attributes of malaria parasite diadenosine tetraphosphate hydrolase” (Scientific Reports, 2016).

One may read the Kd as the free concentration of one partner at which half of the binding sites on the other are occupied at equilibrium, for simple one-to-one binding.

This assay addresses T1, P. falciparum diadenosine tetraphosphate (Ap4A) hydrolase (PfAp4AH) (Plasmodium falciparum, UniProt C0H4F3).
T1 construct: gene PF3D7_0520600; Full length PfAp4AH, recombinant from E. coli, His-tag removed
T1 sequence (C0H4F3 1-152): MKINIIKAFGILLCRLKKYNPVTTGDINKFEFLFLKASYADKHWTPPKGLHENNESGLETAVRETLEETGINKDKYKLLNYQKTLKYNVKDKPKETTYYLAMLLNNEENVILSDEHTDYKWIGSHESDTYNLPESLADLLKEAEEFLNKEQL
Briefly: ITC at […] °C (n = […]); also enzyme inhibition IC50 […] and thermal shift (negative ΔTm). It is filed as binding.

For the compound `Cc1ccc(C(=O)Nc2ccc(S(=O)(=O)O)c3cc(S(=O)(=O)O)cc(S(=O)(=O)O)c23)cc1NC(=O)c1cccc(NC(=O)Nc2cccc(C(=O)Nc3cc(C(=O)Nc4ccc(S(=O)(=O)O)c5cc(S(=O)(=O)O)cc(S(=O)(=O)O)c45)ccc3C)c2)c1` [suramin], the Kd was 18.1 ± 1.1 µM.
